Results on eight compounds are retold here after paper PMC11477621, “Design, Synthesis, and Biological Evaluation of HDAC Inhibitors Containing Natural Product-Inspired N-Linked 2-Acetylpyrrole Cap” (Molecules, 2024).

For one data set, the target named is T1, HDAC6 (Homo sapiens, UniProt Q9UBN7).
T1 construct: purchased BPS #50006
T1 sequence (Q9UBN7 1-1215): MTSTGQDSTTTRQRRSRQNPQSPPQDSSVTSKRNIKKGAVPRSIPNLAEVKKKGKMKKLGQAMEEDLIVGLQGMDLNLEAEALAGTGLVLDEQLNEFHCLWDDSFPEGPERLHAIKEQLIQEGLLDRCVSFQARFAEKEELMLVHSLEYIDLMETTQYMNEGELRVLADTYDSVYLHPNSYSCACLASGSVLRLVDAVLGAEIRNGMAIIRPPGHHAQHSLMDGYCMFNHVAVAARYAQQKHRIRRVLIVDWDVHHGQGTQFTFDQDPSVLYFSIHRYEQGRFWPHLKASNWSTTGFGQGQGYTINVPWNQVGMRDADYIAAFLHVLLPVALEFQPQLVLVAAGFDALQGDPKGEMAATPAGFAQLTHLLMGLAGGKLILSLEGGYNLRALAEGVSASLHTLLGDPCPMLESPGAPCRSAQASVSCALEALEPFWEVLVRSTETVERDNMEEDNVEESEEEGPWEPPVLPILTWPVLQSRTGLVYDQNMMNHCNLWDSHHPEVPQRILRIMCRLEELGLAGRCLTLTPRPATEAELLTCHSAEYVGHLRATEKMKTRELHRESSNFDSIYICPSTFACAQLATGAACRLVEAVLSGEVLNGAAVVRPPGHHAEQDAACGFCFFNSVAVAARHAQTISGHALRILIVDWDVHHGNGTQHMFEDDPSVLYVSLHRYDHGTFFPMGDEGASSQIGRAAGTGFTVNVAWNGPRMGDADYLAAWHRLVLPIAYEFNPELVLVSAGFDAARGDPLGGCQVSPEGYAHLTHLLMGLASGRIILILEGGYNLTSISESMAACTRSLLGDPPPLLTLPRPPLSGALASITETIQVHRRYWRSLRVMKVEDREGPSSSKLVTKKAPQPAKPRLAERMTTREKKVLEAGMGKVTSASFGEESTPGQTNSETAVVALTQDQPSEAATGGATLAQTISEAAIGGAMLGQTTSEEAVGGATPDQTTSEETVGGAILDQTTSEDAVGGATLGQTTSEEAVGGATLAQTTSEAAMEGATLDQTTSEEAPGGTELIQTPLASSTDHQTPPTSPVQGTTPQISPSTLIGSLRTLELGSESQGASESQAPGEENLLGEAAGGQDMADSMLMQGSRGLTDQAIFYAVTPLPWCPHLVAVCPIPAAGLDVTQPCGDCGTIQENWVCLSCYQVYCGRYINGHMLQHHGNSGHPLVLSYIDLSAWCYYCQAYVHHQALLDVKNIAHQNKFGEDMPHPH
Nature of the data set: HDAC inhibition assay (HTRF), HDAC6. Conditions: read-out: IC50 ± SD, HDAC6. Type of data set: biochemical.

Data set [1] deals with HCT-116 (human colon cancer cell line). Nature of the data set: CCK8 cell viability assay, HCT-116. Format: cell-based. Conditions: 72 h, read-out: Proliferation inhibition IC50 ± SD, HCT-116. On the procedure: (§1) The CCK8 (#AC11L054, Life ilab, Shanghai, China) method was used to detect the cells’ proliferation. Cells were seeded into a 96-well culture plate at an appropriate density. […] IC50 values were estimated using the four-parameter method. Each set of experiments was repeated independently three times with three replicate wells per concentration each time.
Background: Tetrazolium dyes change colour on reduction, which living cells bring about.

For data set [2], the system named is RPMI-8226 (human myeloma cell line). Kind of data set: CCK8 cell viability assay, RPMI-8226. Format: cell-based. Conditions: 72 h, read-out: Proliferation inhibition IC50 ± SD, RPMI-8226. The protocol:
as §1

For a further data set, the target named is HDAC3 (Homo sapiens, UniProt O15379). Kind of data set: HDAC inhibition assay (HTRF), HDAC3.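 Further: HTRF detection with streptavidin-XL665 and a Eu cryptate-labelled antibody against unmodified H3K9, two independent runs with duplicate wells at each concentration.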 A general note: TR-FRET usually uses a lanthanide donor and a delayed reading to cut background.
Chain of HDAC3 (O15379 whole entry): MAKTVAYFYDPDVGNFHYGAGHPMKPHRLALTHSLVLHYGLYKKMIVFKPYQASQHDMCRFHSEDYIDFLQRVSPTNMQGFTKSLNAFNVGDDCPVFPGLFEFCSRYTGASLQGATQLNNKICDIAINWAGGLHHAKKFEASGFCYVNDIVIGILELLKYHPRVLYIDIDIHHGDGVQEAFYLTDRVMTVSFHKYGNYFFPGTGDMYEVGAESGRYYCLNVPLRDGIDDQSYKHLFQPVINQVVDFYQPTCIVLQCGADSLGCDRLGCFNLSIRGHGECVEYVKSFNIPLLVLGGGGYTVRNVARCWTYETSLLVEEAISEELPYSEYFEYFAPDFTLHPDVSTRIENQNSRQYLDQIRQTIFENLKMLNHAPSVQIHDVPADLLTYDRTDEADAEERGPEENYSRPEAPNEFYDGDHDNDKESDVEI
Chain of HDAC3 (Q9Y618 395-489 partner limits assumed): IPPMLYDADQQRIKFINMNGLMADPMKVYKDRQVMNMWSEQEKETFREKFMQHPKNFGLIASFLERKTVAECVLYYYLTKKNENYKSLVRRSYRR
For the next data set, the system named is RPMI-8226 cells. Kind of data set: Apoptosis assay, Annexin V-FITC/PI flow cytometry. Type of data set: cell-based, human. Conditions: 1, 3 and 10 μM, 48 h. The text has this: Annexin V-FITC and PI double-staining detection kits were used to determine apoptotic cells. […] Data results were obtained from three independent experiments.
In general terms: Flow cytometry measures light scatter and fluorescence of single cells or particles in a stream.

The subject of data set [3] is Ac-histone H3 in RPMI-8226 cells. Nature of the data set: Western blot of Ac-histone H3. Format: cell-based, human. Conditions: 24 h; for Histone H3 acetylation level: 10 μM. The protocol:
(§2) RPMI-8226 cells were seeded in six-well plates and treated with compounds for 24 h. Cells were lysed with 1× SDS loading buffer (50 mM Tris pH 6.8, 100 mM DTT, 2% SDS, 0.1% bromophenol blue, 10% glycerol), and then centrifuged at 12,000 rpm for 5 min at 4 °C. Cell extracts were probed with antibodies Ac-Tubulin (#5335T, CST, Kansas City, MO, USA), α-Tubulin (#2144S, CST, Kansas City, MO, USA), AcH3 (#ab39139, active motif, Carlsbad, CA, USA), Histone H3 (#17168-1-AP, Proteintech, Chicago, IL, USA), GAPDH (#60004-1-1g, Proteintech, Chicago, IL, USA), Goat Anti-Mouse IgG, H&L Chain Specific Peroxidase Conjugate (#401215, Calbiochem, Darmstadt, Germany), Goat Anti-Rabbit IgG, or H&L Chain Specific Peroxidase Conjugate (#401353, Calbiochem, Germany), then detected using Bio-RAD power pal Basic (#041BR66615, BioRad Laboratories, Hercules, CA, USA), Bio-RAD Mini-PROTEAN Tetrade System (#IEC/EN 61010-1, BioRad Laboratories, Hercules, CA, USA), or Bio-RAD Chemi Touch Imagin (BioRad Laboratories, Hercules, CA, USA).

In data set [4] the test system is HL-60 (human leukemia cell line). Kind of data set: CCK8 cell viability assay, HL-60. Format: cell-based. Conditions: 72 h, read-out: Proliferation inhibition IC50 ± SD, HL-60. The protocol:
as §1

The target in another data set is T2, HDAC1 (Homo sapiens, UniProt Q13547).
T2 construct: purchased BPS #50001
T2 sequence (Q13547 whole entry): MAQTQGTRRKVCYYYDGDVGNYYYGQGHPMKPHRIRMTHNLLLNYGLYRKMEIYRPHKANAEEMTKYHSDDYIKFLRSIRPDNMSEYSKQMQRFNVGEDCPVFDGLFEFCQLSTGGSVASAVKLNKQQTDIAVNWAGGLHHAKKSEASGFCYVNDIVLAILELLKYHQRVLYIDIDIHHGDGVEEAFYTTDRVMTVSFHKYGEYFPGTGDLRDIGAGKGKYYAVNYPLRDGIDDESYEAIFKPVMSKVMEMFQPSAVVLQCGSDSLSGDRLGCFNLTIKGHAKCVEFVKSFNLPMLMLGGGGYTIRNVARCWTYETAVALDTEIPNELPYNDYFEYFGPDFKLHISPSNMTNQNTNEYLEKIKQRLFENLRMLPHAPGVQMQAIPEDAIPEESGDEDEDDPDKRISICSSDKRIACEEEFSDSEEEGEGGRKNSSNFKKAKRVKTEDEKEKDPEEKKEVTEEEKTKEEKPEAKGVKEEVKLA
Kind of data set: HDAC inhibition assay (HTRF), HDAC1.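 Further: HTRF detection with streptavidin-XL665 plus Eu(K)-labelled anti-H3K9me0 antibody, two independent runs with duplicate wells per concentration.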 Type of data set: biochemical. The following applies: read-out: IC50 ± SD, HDAC1.

Data set [5] relates to Ac-tubulin in RPMI-8226 cells. Nature of the data set: Western blot of Ac-tubulin. Format: cell-based, human. The following applies: 24 h; for Ac-α-tubulin protein expression: tested concentrations. The protocol:
as §2

The conditions of data set [6]: ref [46],[47]; cited from earlier work.
The nature of data set [7]: Pharmacokinetic study in male ICR mice. Format: in vivo. The following applies: mouse, plasma. On the procedure: Specific procedures were referred to the reported method. ICR mice (n = 6) were fasted for 12 h before administration and remained fasting for 2 h. The animal room environment was controlled (target conditions: temperature 18 to 29 °C, relative humidity 30 to 70%). Temperature and relative humidity were monitored daily. An electronic time-controlled lighting system was used to provide a 12 h light/12 h dark cycle. Compound 20 was administered at doses of 5 mg/kg (po) and 1 mg/kg (iv). The time points for blood sample collection were 0.25, 0.50, 1.00, 2.00, 4.00, 8.00, and 24 h post dose for the po-administrated group, and the time points were 0.05, 0.25, 0.75, 2.00, 4.00, 8.00, and 24 h for the iv group. For each point, 20 μL of plasma were transferred into a clean tube, 200 μL of MeOH/ACN (50/50, v/v) containing IS were added, and they were thoroughly vortexed by a vortex mixer for 1 min. The mixture was centrifuged at 15000 rpm for 5 min, and then 20 μL of supernatant was mixed with 20 μL of water for the analysis by LC-MS.

Description for HDAC1: (§3) Then, SA-XL665 (#610SAXLG, Cisbio, Bedford, MA, USA) and anti-H3K9me0-Eu(K) (#61KB0KAD, Cisbio, USA) were added. […] The IC50 value of the compounds was calculated using GraphPad 7.0 software. Each set of experiments was independently repeated twice, with two replicate wells per concentration each time.
Description for HDAC3: as §3
Description for HDAC6: as §3

On to `CC(=O)c1cccn1Cc1cn(CCc2ccc(C(=O)Nc3ccccc3N)cc2)nn1` [Compound 19a, 4-(2-(4-((2-Acetyl-1H-pyrrol-1-yl)methyl)-1H-1,2,3-triazol-1-yl)ethyl)-N-(2-aminophenyl)benzamide], for which the IC50 at HDAC6 is above 10000 nM; in data set [1], 13.2 ± 2.48 µM; in data set [2], 10 ± 0.52 µM; against HDAC3, 1390 ± 373 nM; in data set [4], 8.32 ± 0.37 µM; at HDAC1, 1100 ± 144 nM. Further, the “Promotion of RPMI-8226 cell apoptosis” value in the data set on RPMI-8226 cells is on record as “promote RPMI-8226 cell apoptosis in a dose-dependent manner”. Besides, the “Histone H3 acetylation level” value in data set [3] is on record as “increased histone H3 acetylation levels comparable to MS-275”. The Ac-α-tubulin protein expression result in [5] is on record as “no discernible effect”.

On to `O=C(CCCCCCn1cccc1C(=O)C(F)(F)F)NO` [Compound 5c, N-hydroxy-7-(2-(2,2,2-trifluoroacetyl)-1H-pyrrol-1-yl)heptanamide], for which the IC50 is 4.22 ± 0.1 nM on HDAC6; 12.3 ± 2.2 µM in data set [1]; 11.9 ± 1.58 µM in [2]; 26.6 ± 1.9 nM at HDAC3; 8.56 ± 1.47 µM in data set [4]; 36.8 ± 5.87 nM on HDAC1. In the data set with RPMI-8226 cells, the “Promotion of RPMI-8226 cell apoptosis” value is given as “promote RPMI-8226 cell apoptosis in a dose-dependent manner”.

Regarding `Cc1[nH]c2ccccc2c1CCNCc1ccc(/C=C/C(=O)NO)cc1` [panobinostat], the “F% (oral bioavailability)” value in data set [6] is 4.62%.

Turning to `CC(=O)c1cccn1Cc1ccc(/C=C/C(=O)NO)cc1` [Compound 14, (E)-3-(4-((2-acetyl-1H-pyrrol-1-yl)methyl)phenyl)-N-hydroxyacrylamide], the IC50 at HDAC6 stood at 33.7 ± 14.8 nM; in data set [1] it was 8.63 ± 0.82 µM; in data set [2], 8.85 ± 2.3 µM; against HDAC3 it was 457 ± 173 nM; in data set [4], 8.16 ± 1.96 µM; on HDAC1, 800 ± 50.4 nM. In addition, in the data set with RPMI-8226 cells, the “Promotion of RPMI-8226 cell apoptosis” value is listed as “promote RPMI-8226 cell apoptosis in a dose-dependent manner”. In data set [3] (same concentration), the “Acetylated histone H3 compared to compound 5c” value was “induced more acetylated tubulin and acetylated histone H3”. The “Acetylated tubulin compared to compound 5c” value in data set [5] (same concentration) was “induced more acetylated tubulin”.

Consider `Nc1ccccc1NC(=O)c1ccc(CNC(=O)OCc2cccnc2)cc1` [MS-275, entinostat, reference compound], for which, in data set [5], the Ac-α-tubulin protein expression entry is “no discernible effect”.

Regarding `O=C(CCCCCCC(=O)Nc1ccccc1)NO` [SAHA, vorinostat], in [6], the “F% (oral bioavailability)” value was 8.33%.

Take `Nc1cc(F)ccc1NC(=O)c1ccc(CNC(=O)/C=C/c2cccnc2)cc1` [Chidamide, reference compound]: the IC50 in data set [1] is 4.67 ± 0.53 µM; in [2], 10.2 ± 1.02 µM; in data set [4], 0.5 ± 0.08 µM. In addition, the Ac-α-tubulin protein expression entry in [5] was “no discernible effect”.

The term AUC(0-inf) denotes total exposure, with the tail of the curve extrapolated. The AUC(0-t) is exposure summed from dosing to a finite time, without extrapolation to infinity. Low readings indicate low exposure, high ones high exposure. The term MRT inf denotes a mean duration of stay, worked out from the concentration-time curve. A word on the clearance: it is the rate of elimination divided by the concentration. Higher therefore signals efficient removal. The half-life is how long it takes for the measured level to halve. One may read the Cmax as the peak of the concentration-time curve. The term Tmax denotes the time from dosing to the highest level. As a reminder, the bioavailability is the share of a dose that reaches the circulation, judged against a reference dose that is usually intravenous. Turning to `CC(=O)c1cccn1CCc1ccc(C(=O)Nc2ccccc2N)cc1` [Compound 20, 4-(2-(2-Acetyl-1H-pyrrol-1-yl)ethyl)-N-(2-aminophenyl)benzamide], the IC50 on HDAC6 is above 10000 nM. Moreover, the IC50 in [1] is 9.08 ± 0.58 µM. Besides, the IC50 in data set [2] is 2.89 ± 0.43 µM. This compound also registered an IC50 against HDAC3 of 1080 ± 229 nM. For the same compound, the “Promotion of RPMI-8226 cell apoptosis” value with RPMI-8226 cells was “promote RPMI-8226 cell apoptosis in a dose-dependent manner”. The “Histone H3 acetylation level” value in data set [3] is on record as “increased histone H3 acetylation levels comparable to MS-275”. For the same compound, the IC50 in [4] turned out to be 4.71 ± 0.24 µM. In [7] (iv, 1 mg/kg), this compound registered an AUC(0-inf) of 163 ± 3 ng·h/mL, an AUC(0-t) of 163 ± 3 ng·h/mL, an MRT inf of 0.181 ± 0.006 h and a clearance of 102 ± 2 mL/min/kg. Further, the half-life in data set [7] (iv, 1 mg/kg) is 11.5 ± 0.72 min. The Vd in [7] (iv, 1 mg/kg, read-out: Vss) turned out to be 1.11 ± 0.052 L/kg. For the same compound, in data set [7] (po, 5 mg/kg), the AUC(0-inf) was 47.2 ± 26.6 ng·h/mL, the AUC(0-t) was 40.7 ± 21.8 ng·h/mL, the Cmax stood at 48.3 ± 31.1 ng/mL and the mean residence time (MRT inf) is 1.84 ± 0.42 h. Also, in data set [7] (po, 5 mg/kg), the Tmax was 20 ± 8.64 min and the half-life was 93 ± 30.6 min. In addition, the bioavailability in [7] (po, 5 mg/kg, read-out: F (oral bioavailability)) turned out to be 5%. Moreover, the IC50 on HDAC1 came to 441 ± 78.2 nM. In addition, in data set [5], the Ac-α-tubulin protein expression entry is reported as “no discernible effect”.
